The nature of this data set: In vivo pharmacokinetic study, 24-h i.v. infusion. Also noted: species or system mouse. Particulars: mice; for AUC(0-t): female, CD-1, mouse, whole blood, iv, read-out: exposure AUC0-24. The protocol:
Two female CD-1 mice were given a 750 mg/kg of 24 h i.v. infusion dose of G2. […] Two female CD-1 mice were given a 250 mg/kg of 24-h i.v. infusion dose of G1. Another group of two mice received 250 mg/kg of 24-h i.v. infusion dose of G1 with a 150 mg/kg ABT PO dose of pretreatment at 2 h prior the i.v. infusion. Ten microliters of blood was collected accurately at 0.5, 1, 2, 4, 6, 8, and 24 h after infusion start. Blood samples were then immediately placed into labeled polypropylene micro-centrifuge tubes containing 40 µL of 1.7 mg/mL potassium (K2) EDTA in water, mixed, and then frozen and stored at −70°C until bio-analysis.
G2, G1, ABT, and 4-MP blood concentrations in mouse PK studies were determined by LC-MS/MS. All samples were prepared by protein precipitation. Chromatographic separations were achieved using an ACQUITY CM UPLC system (Waters, Milford, MA) including an ACQUITY BSM solvent delivery system, an ACQUITY SM autosampler, and an ACQUITY CM column oven. For G1, G2, and ABT, an ACQUITY UPLC HSS T3 column (2.1 × 50 mm, 1.8 µm) was used. For 4-MP, an ACQUITY UPLC BEH Amide column (2.1 × 50 mm, 1.7 µm) was used. Gradient elution that contained 0.1% formic acid in water and 0.1% formic acid in acetonitrile was used for G1, ABT, and 4-MP. Gradient elution that contained 0.1% formic acid with 2 mM ammonium formate in water/acetonitrile (vol/vol, 95:5) was used for G2. The LC flow rate was 0.6 mL/min for G1, G2, and ABT, and 0.5 mL/min for 4-MP. The sample injection volume was 1 µL for ABT, G1, and G2, and 2 µL for 4-MP. A QTrap 5500/6500 tandem mass spectrometer (SCIEX, Foster City, CA) with TurboIonSpray interface was operated in positive ionization mode with multiple reaction monitoring (MRM) for LC-MS/MS analysis. The mass spectrometer was operated at unit mass resolution for both Q1 and Q3 quadrupoles. The precursor to product ion transitions of analytes are presented as Q1/Q3 ratios for each compound: 4-MP (83.0/56.1), G1 (383.1/197.1), G2 (399.1/171.0), and ABT (135.0/80.1). The standard curves cover the ranges of 0.005 µg/mL–11.7 µg/mL, 0.005 µg/mL–33.4 µg/mL, 0.05 µg/mL–334 µg/mL, and 1.37 µg/mL–334 µg/mL for G1, G2, ABT, and 4-MP, respectively.

The record followed here is paper PMC11481871, “Discovery of GuaB inhibitors with efficacy against Acinetobacter baumannii infection” (mBio, 2024).

Like-named read-outs stand apart in the source and are kept apart here.

Turning to `C[C@H](Nc1ccc2ncc3c(c2c1)CCOC3)C(=O)Nc1ccc(Cl)nc1` [G1, (2S)-N-(6-chloro-3-pyridyl)-2-(2,4-dihydro-1H-pyrano[3,4-c]quinolin-9 ylamino)propanamide], for the setting “24-h i.v. infusion 250 mg/kg, co-administered 150 mg/kg ABT”, the AUC(0-t) turned out to be 692 µM·h. Also, where the note is “250 mg/kg 24-h i.v. infusion”, the “exposure higher than without co-administration with ABT” value is given as “fourfold”.

With `C[C@H](Nc1ccc2ncc(CO)cc2c1)C(=O)Nc1ccc(Cl)c(N(C)C)c1` [G2, (2S)-N-[4-chloro-3-(dimethylamino)phenyl]-2-[[3-(hydroxymethyl)-6-quinolyl]amino]propanamide], the AUC(0-t) (24-h i.v. infusion 750 mg/kg, co-administered 150 mg/kg ABT and 100 mg/kg 4-MP) was 21300 µM·h. Moreover, the “exposure higher than without co-administration with ABT and 4-MP” value (750 mg/kg 24-h i.v. infusion) was determined as 100 fold.
